In US20230055705A1, “SUBSTITUTED THIOPHENE CARBOXAMIDES AND DERIVATIVES THEREOF” (Bayer Aktiengesellschaft, priority 2019, published 2023) one finds LogP and chromatographic logP data, which are given here for 85 compounds.

Structures are written as SMILES.

The chromatographic logP is lipophilicity estimated from chromatographic retention. The low end stands for lower lipophilicity, the high end for higher lipophilicity.

A short description of the first data set: LogP by HPLC on reversed phase columns (EEC directive 79/831 Annex V.A8). The data set is classed as physicochemical.
Conditions: not given
As to the method:
In the above tables, measurement of LogP values was performed according to EEC directive 79/831 Annex V.A8 by HPLC (High Performance Liquid Chromatography) on reversed phase columns with the following methods: • ^[a]
Calibration was done with straight-chain alkan2-ones (with 3 to 16 carbon atoms) with known LogP values (measurement of LogP values using retention times with linear interpolation between successive alkanones). Lambda-max-values were determined using UV-spectra from 200 nm to 400 nm and the peak values of the chromatographic signals.
For `NC(=O)CC(NC(=O)c1sc(Cl)c(Cl)c1Cl)C(=O)O` (stereo not shown) [I.001], the LogP was 1.81^[a]. Same read-out and setting: for `NC(=O)CCC(NC(=O)c1sc(Cl)c(Cl)c1Cl)C(=O)O` (stereo not shown) [I.002] the value was 1.73^[a]. Take `O=C(NC(Cc1c[nH]c2ccccc12)C(=O)O)c1sc(Cl)c(Cl)c1Cl` (stereo not shown) [I.003]: the LogP is 3.31^[a].

With `O=C(NC1CCNC1=O)c1sc(Cl)c(Cl)c1Cl` (stereo not shown) [I.004], the LogP was 1.98^[a].

In the case of `COC(=O)C(NC(=O)c1sc(Cl)c(Cl)c1Cl)(C1CC1)C1CC1` [I.005], the LogP was 4.51^[a]. On the same count and under the same terms, for `CCOC(=O)C(NC(=O)c1sc(Cl)c(Cl)c1Cl)C(=O)OCC` [I.006] the value was 4.19^[a]; for `COC(=O)[C@@H](CC(N)=O)NC(=O)c1sc(Cl)c(Cl)c1Cl` [I.014], 2.11^[a]; for `CCOC(=O)C(NC(=O)c1sc(Cl)c(Cl)c1Cl)OC` (stereo not shown) [I.017], 3.57^[a]. Still for that read-out and setting: for `CCOC(=O)CN(OC)C(=O)c1sc(Cl)c(Cl)c1Cl` [I.018] the value was 3.64^[a]; for `O=C1SCCC1NC(=S)c1sc(Cl)c(Cl)c1Cl` (stereo not shown) [I.019], 4.37^[a]; for `COC(=O)C(C1CC1)N(O)C(=O)c1sc(Cl)c(Cl)c1Cl` (stereo not shown) [I.021], 3.00^[a]. Same read-out and setting: in the case of `O=C(NC1CCSC1=O)c1sc(Cl)c(Cl)c1Cl` (stereo not shown) [I.023] it was 3.17^[a]; in that of `CC1(C)SC(=O)C1NC(=O)c1sc(Cl)c(Cl)c1Cl` (stereo not shown) [I.024], 4.04^[a]; in that of `CCOC(=O)CCNC(=O)c1sc(Cl)c(Cl)c1Cl` [I.026], 3.46^[a]. For `CC(C)OC(=O)C1(C2(NC(=O)c3sc(Cl)c(Cl)c3Cl)CC2)CC1` [I.027], the LogP was 5.35^[a].

`O=C1CC(NC(=O)c2sc(Cl)c(Cl)c2Cl)CN1` (stereo not shown) [I.028]: the LogP is 1.86^[a].

Regarding `O=C(NC1CCOC1=O)c1sc(Cl)c(Cl)c1Cl` (stereo not shown) [I.029], the LogP was 2.48^[a]. Take `O=C1CC(NC(=O)c2sc(Cl)c(Cl)c2Cl)CCN1` (stereo not shown) [I.030]: the LogP was 1.93^[a]. Same read-out and setting: for `O=C(NC1CCCNC1=O)c1sc(Cl)c(Cl)c1Cl` (stereo not shown) [I.031] the value was 2.20^[a]; for `N#CC1(NC(=O)c2sc(Cl)c(Cl)c2Cl)CC1` [I.032], 2.88^[a]. The same measure, in the same setting: in the case of `N#CC(NC(=O)c1sc(Cl)c(Cl)c1Cl)c1ccccc1` (stereo not shown) [I.034] it was 3.92^[a]; in that of `N#CC(Cc1ccccc1)NC(=O)c1sc(Cl)c(Cl)c1Cl` (stereo not shown) [I.035], 4.13^[a]. On to `CCSC(=O)CNC(=O)c1sc(Cl)c(Cl)c1Cl` [I.036], for which the LogP was 3.75^[a].

As to `CCOC(=O)C1(NC(=S)c2sc(Cl)c(Cl)c2Cl)CC1` [I.037], the LogP was 4.61^[a]. Same read-out and setting: in the case of `CCSC(=O)C(CC(C)C)NC(=O)c1sc(Cl)c(Cl)c1Cl` (stereo not shown) [I.039] it was 5.54^[a]; in that of `CCSC(=O)C(NC(=O)c1sc(Cl)c(Cl)c1Cl)C(C)C` (stereo not shown) [I.040], 5.34^[a]. For `O=C(CNC(=O)c1sc(Cl)c(Cl)c1Cl)SCc1ccccc1` [I.041], the LogP is 4.56^[a]. On to `O=C(CNC(=O)c1sc(Cl)c(Cl)c1Cl)Sc1ccccc1` [I.042], for which the LogP was 4.27^[a]. The same measure, in the same setting: in the case of `O=C(N[C@H]1CCSC1=O)c1sc(Cl)c(Cl)c1Cl` [I.043] it was 3.24^[a]; in that of `CCOC(=O)C1(CNC(=O)c2sc(Cl)c(Cl)c2Cl)CC1` [I.045], 4.27^[a]. Same read-out and setting: for `CCOC(=O)C1(C2(NC(=O)c3sc(Cl)c(Cl)c3Cl)CC2)CC1` [I.047] the value was 4.83^[a]; for `O=C(NC1(C(=O)NO)CC1)c1sc(Cl)c(Cl)c1Cl` [I.050], 1.91^[a].

In the case of `CSCCC(NC(=O)c1sc(Cl)c(Cl)c1Cl)C(=O)O` (stereo not shown) [I.051], the LogP is 3.01^[a].

Regarding `CN(CC#N)C(=O)C1(NC(=O)c2sc(Cl)c(Cl)c2Cl)CC1` [I.052], the LogP was 2.44^[a]. On the same count and under the same terms, for `CONC(=O)C1(NC(=O)c2sc(Cl)c(Cl)c2Cl)CC1` [I.055] the value was 2.14^[a]; for `O=C(NC(CO)C(=O)O)c1sc(Cl)c(Cl)c1Cl` (stereo not shown) [I.056], 1.94^[a].

Regarding `CCOC(=O)C1(NC(=O)c2sc(Cl)c(Cl)c2Cl)CN(C(=O)OC(C)(C)C)C1` [I.057], the LogP was 4.47^[a]. Same read-out and setting: in the case of `CCOC(=O)C(CC1CC1)NC(=O)c1sc(Cl)c(Cl)c1Cl` (stereo not shown) [I.058] it was 4.81^[a]. The same measure, in the same setting: in the case of `NC(=O)C1(NC(=O)c2sc(Cl)c(Cl)c2Cl)CC1` [I.060] it was 2.00^[a]; in that of `N#CCNC(=O)CNC(=O)c1sc(Cl)c(Cl)c1Cl` [I.062], 2.21^[a]. Still for that read-out and setting: in the case of `CN(CC#N)C(=O)CNC(=O)c1sc(Cl)c(Cl)c1Cl` [I.063] it was 2.62^[a]; in that of `CN(C)C(=O)CNC(=O)c1sc(Cl)c(Cl)c1Cl` [I.065], 2.47^[a]; in that of `CCOC(=O)C1(NC(=O)c2sc(Cl)c(Cl)c2Cl)CCCC1` [I.070], 4.61^[a]. `COC(=O)C1(NC(=O)c2sc(Cl)c(Cl)c2Cl)CCOCC1` [I.071]: the LogP is 3.00^[a]. Same read-out and setting: for `COC(=O)C1(NC(=O)c2sc(Cl)c(Cl)c2Cl)CCC(F)(F)CC1` [I.072] the value was 3.99^[a]; for `CNC(=O)CNC(=O)c1sc(Cl)c(Cl)c1Cl` [I.073], 2.07^[a]. Same read-out and setting: in the case of `COC(=O)[C@H](Cc1ccccc1)NC(=O)[C@H](CC(=O)O)NC(=O)c1sc(Cl)c(Cl)c1Cl` [I.074] it was 3.19^[a].

Take `COC(=O)[C@H](CCC(=O)O)NC(=O)c1sc(Cl)c(Cl)c1Cl` [I.075]: the LogP is 2.57^[a]. Same read-out and setting: for `COC(=O)C1(NC(=O)c2sc(Cl)c(Cl)c2Cl)CCOC1` (stereo not shown) [I.076] the value was 3.00^[a]; for `CCOC(=O)C1(NC(=O)c2sc(Cl)c(Cl)c2Cl)CCOCC1` [I.077], 3.39^[a].

As to `COC(=O)C1(NC(=O)c2sc(Cl)c(Cl)c2Cl)CSC1` [I.080], the LogP was 3.50^[a].

As to `COC(=O)[C@H](CC(=O)O)NC(=O)c1sc(Cl)c(Cl)c1Cl` [I.081], the LogP was 2.46^[a]. The same measure, in the same setting: for `COC(=O)[C@H](CCC(N)=O)NC(=O)c1sc(Cl)c(Cl)c1Cl` [I.082] the value was 2.19^[a]; for `CCOC(=O)[C@H](CO)NC(=O)c1sc(Cl)c(Cl)c1Cl` [I.083], 2.78^[a]. The same measure, in the same setting: in the case of `CCOC(=O)C(CCSC)NC(=O)c1sc(Cl)c(Cl)c1Cl` (stereo not shown) [I.084] it was 4.47^[a]; in that of `CCOC(=O)C1(NC(=O)c2sc(Cl)c(Cl)c2Cl)CSC1` [I.085], 3.92^[a]. Consider `CC(C)(C)OC(=O)C1(NC(=O)c2sc(Cl)c(Cl)c2Cl)CC(F)(F)C1` [I.086], for which the LogP was 4.81^[a]. For `COC(=O)C1(NC(=O)c2sc(Cl)c(Cl)c2Cl)CC(C)(C)C1` [I.087], the LogP is 4.48^[a]. As to `COC(=O)C1(NC(=O)c2sc(Cl)c(Cl)c2Cl)CC(F)(F)C1` [I.088], the LogP is 3.65^[a]. Still for that read-out and setting: for `CCSC(=O)C(NC(=O)c1sc(Cl)c(Cl)c1Cl)C(C)C` (stereo not shown) [I.090] the value was 5.45^[a]; for `CCOC(=O)C(NC(=S)c1sc(Cl)c(Cl)c1Cl)C(C)C` (stereo not shown) [I.092], 6.17^[a]; for `COC(=O)C(NC(=S)c1sc(Cl)c(Cl)c1Cl)C(C)C` (stereo not shown) [I.093], 5.61^[a]. Still for that read-out and setting: in the case of `CCNC(=O)[C@@H](NC(=O)c1sc(Cl)c(Cl)c1Cl)C(C)C` [I.094] it was 3.43^[a]. On to `CC(C)(C)OC(=O)C1(NC(=O)c2sc(Cl)c(Cl)c2Cl)CCC1` [I.097], for which the LogP is 5.28^[a].

For `CCCCOC(=O)C1(NC(=O)c2sc(Cl)c(Cl)c2Cl)CCC1` [I.099], the LogP was 5.20^[a]. The same measure, in the same setting: for `O=C(NC1(C(=O)OCc2ccccc2)CCC1)c1sc(Cl)c(Cl)c1Cl` [I.100] the value was 5.00^[a]; for `CCCOC(=O)C1(NC(=O)c2sc(Cl)c(Cl)c2Cl)CCC1` [I.101], 4.74^[a]; for `O=C(NC1(C(=O)OC2CCC2)CCC1)c1sc(Cl)c(Cl)c1Cl` [I.102], 4.93^[a]. On the same count and under the same terms, in the case of `O=C(NC1(C(=O)OC2CCCCC2)CCC1)c1sc(Cl)c(Cl)c1Cl` [I.103] it was 5.84^[a].

As to `NC(=S)C1(NC(=O)c2sc(Cl)c(Cl)c2Cl)CC1` [I.105], the LogP is 2.62^[a]. Still for that read-out and setting: for `N#CNC(=O)CNC(=O)c1sc(Cl)c(Cl)c1Cl` [I.106] the value was 2.45^[a]. For `N#CNC(=O)C1(NC(=O)c2sc(Cl)c(Cl)c2Cl)CC1` [I.107], the LogP is 2.57^[a]. In the case of `COC(=O)C1(NC(=O)c2sc(Cl)c(Cl)c2Cl)CCC1` [I.112], the LogP was 3.69^[a].

Consider `CN(C)C(=S)C1(NC(=O)c2sc(Cl)c(Cl)c2Cl)CC1` [I.115], for which the LogP was 3.20^[a].

As to `CCOC(=O)CN(C(=O)c1sc(Cl)c(Cl)c1Cl)C1CC1` [I.116], the LogP was 3.78^[a]. The same measure, in the same setting: in the case of `O=C(N[C@H]1CCOC1=O)c1sc(Cl)c(Cl)c1Cl` [I.121] it was 2.49^[a]; in that of `COC(=O)C(C)(Cc1ccccc1)NC(=O)c1sc(Cl)c(Cl)c1Cl` (stereo not shown) [I.122], 5.11^[a]; in that of `CCOC(=O)C(NC(=O)c1sc(Cl)c(Cl)c1Cl)C(F)(F)F` (stereo not shown) [I.123], 4.47^[a]. Same read-out and setting: for `O=C(NC1CCCCNC1=O)c1sc(Cl)c(Cl)c1Cl` (stereo not shown) [I.125] the value was 2.93^[a]. For the compound `O=C(N[C@H]1CCCNC1=O)c1sc(Cl)c(Cl)c1Cl` [I.126], the LogP is 2.24^[a]. On to `COC(=O)C(CCSC(C)=O)NC(=O)c1sc(Cl)c(Cl)c1Cl` (stereo not shown) [I.127], for which the LogP was 3.94^[a]. Same read-out and setting: in the case of `CNC(=S)CNC(=O)c1sc(Cl)c(Cl)c1Cl` [I.128] it was 2.89^[a]; in that of `CN(C)C(=S)CNC(=O)c1sc(Cl)c(Cl)c1Cl` [I.129], 3.68^[a]. Turning to `CC(C)C(C#N)NC(=O)c1sc(Cl)c(Cl)c1Cl` (stereo not shown) [I.130], the LogP was 3.81^[a].

Staying with this data set, now noted: reversed phase HPLC columns, given in the preparation examples; method not marked.
On to `O=C(NC1(C(=O)O)CC1)c1sc(Cl)c(Cl)c1Cl` [1-{[(3,4,5-trichloro-2-thienyl)carbonyl]amino}cyclopropanecarboxylic acid], for which the chromatographic logP amounted to 2.39.
